Experimental data taken from patent US20250082766A1, “TREATMENT OF BRAIN TUMORS BY TARGETING THE CHOLESTEROL PATHWAY IN ASTROCYES” (Ramot at Tel-Aviv University Ltd., priority 2022, published 2025).

Tests used:
GL261 glioma (GBM) = experiment: Primary GBM model: GL261 intracranially implanted mice treated with Probucol; format: in vivo, mouse; settings: summary statement on ABCA1 inhibitors; FIGS. 16A-E
Experimental: (FIG. 16A) Illustration of the experimental design for primary and recurrent GBM models. (FIGS. 16B-D) WT mice were intracranially (IC) implanted with GL261 cells. Tumor-bearing mice were treated daily, starting at day 10, with Probucol (30 mg/kg) or vehicle. (FIG. 16B) Tumor growth curve as determined by IVIS, (FIG. 16C) mice weight loss, and (FIG. 16D) Kaplan-Meier curves assess overall survival. p-value by Two-way ANOVA. Data represent Mean±SEM, 8 mice/group. (FIG. 16E) Illustration of the predicted effects of probucol or glyburide in the different models/disease stages.
For intracranial mouse glioma, mice were anesthetized, positioned in a Stereotaxic Alignment System, and injected with 1.5×10^4 GL261 or CT-2A cells in 2 μl of DMEM. Injections were made to the right frontal lobe, approximately 2.5 mm lateral and 0.1 mm caudal from bregma at a depth of 3 mm. In-vivo bioluminescence imaging, following XenoLight D-luciferin Potassium Salt administration (150 mg/kg) i.p. administration, was determined using IVIS Spectrum system (PerkinElmer). Ganciclovir (GCV, Cymevene, Roche #SAP-10051872; 25 mg/kg), Diphtheria-toxin (DT, Sigma-Aldrich, #D0564; 1100 ng/mice), or vehicle control (PBS) were administered daily following tumor establishment (day 10), as previously described (Mayo, L., et al. Nat Med (2014) 20: 1147-1156). CD8^+ T cell depletion was performed using an anti-CD8 monoclonal antibody ([…], Bioxcell) or an isotype control monoclonal antibody (2A3, Bioxcell), as previously described (Takenaka, M. C. et al. Control of tumor-associated macrophages and T cells in glioblastoma via AHR and CD39. Nat Neurosci 22, 729-740 (2019)). GBM-bearing mice were intraperitoneally injected (0.1 mg/mouse) with an anti-CD8 or an isotype control mAbs, 1 day before, and 7 days after, GCV administration. CD8 T-cell depletion was validated by FACS analysis using a Sony SH800 FACS instrument (Sony Biotechnology). Data analysis was performed using FlowJo v10 (TreeStar, USA). The following reagents were used for analysis: anti-CD45 (1:100; 30-F11, Biolegend, #103106), anti-CD3[…] (1:50; 145-2C11, Biolegend #100335), and anti-CD8a (1:100; 53-6.7, Biolegend, #100765).
To investigate this hypothesis, C57Bl/6 mice are implanted with GFP^+ luciferase-expressing glioma cells (GL261 or CT-2A), using two subtype models—primary or recurrent GBM/brain tumor resection (as illustrated in FIG. 16A), and are treated daily with probucol, glyburide, or vehicle control, with or without a potent statin (e.g., simvastatin as shown in FIG. 15A). The dosage of the different drugs is optimized based on FDA guidelines for conversions from human-accepted dosages (Table 5 below).
In the primary GBM model (pGBM)—10 days after tumor implantation, the mice are treated with cholesterol-lowering drugs (FIG. 16A). In the recurrent GBM model (rGBM), 12-14 days after inoculation of the mice with the tumor cells, the visible tumor(s) are surgically removed, based on GFP expression, under a stereoscope. The mice are then allowed to recover for a week and then are treated with cholesterol-lowering drugs (FIG. 16A). Of note, tumor formation or recurrence is monitored by bioluminescence (BLI) signals from the tumor cells on in-vivo imaging system (IVIS) spectrum and quantified with Living Image software. Mice are monitored for tumor growth, peritumoral brain edema formation, and mouse survival until the experimental endpoint (extreme lethargy or body weight reduction of greater than 20%), or are euthanized seven days after treatment with the cholesterol-lowering drugs to assess tumor burden, angiogenesis, BBB stability, and immunomodulatory activity in-situ. Tumor volume is evaluated in-vivo by determining tumor BLI, and by histopathology analysis postmortem. Peritumoral brain edema is evaluated in-vivo using IVISense™ Edema (Superhance™ 680) fluorescent probe. […]

[1] = target: cholesterol transporter ABCA1 (Homo sapiens, UniProt O95477); settings: cited from earlier work
cholesterol transporter ABCA1, sequence (O95477 whole entry): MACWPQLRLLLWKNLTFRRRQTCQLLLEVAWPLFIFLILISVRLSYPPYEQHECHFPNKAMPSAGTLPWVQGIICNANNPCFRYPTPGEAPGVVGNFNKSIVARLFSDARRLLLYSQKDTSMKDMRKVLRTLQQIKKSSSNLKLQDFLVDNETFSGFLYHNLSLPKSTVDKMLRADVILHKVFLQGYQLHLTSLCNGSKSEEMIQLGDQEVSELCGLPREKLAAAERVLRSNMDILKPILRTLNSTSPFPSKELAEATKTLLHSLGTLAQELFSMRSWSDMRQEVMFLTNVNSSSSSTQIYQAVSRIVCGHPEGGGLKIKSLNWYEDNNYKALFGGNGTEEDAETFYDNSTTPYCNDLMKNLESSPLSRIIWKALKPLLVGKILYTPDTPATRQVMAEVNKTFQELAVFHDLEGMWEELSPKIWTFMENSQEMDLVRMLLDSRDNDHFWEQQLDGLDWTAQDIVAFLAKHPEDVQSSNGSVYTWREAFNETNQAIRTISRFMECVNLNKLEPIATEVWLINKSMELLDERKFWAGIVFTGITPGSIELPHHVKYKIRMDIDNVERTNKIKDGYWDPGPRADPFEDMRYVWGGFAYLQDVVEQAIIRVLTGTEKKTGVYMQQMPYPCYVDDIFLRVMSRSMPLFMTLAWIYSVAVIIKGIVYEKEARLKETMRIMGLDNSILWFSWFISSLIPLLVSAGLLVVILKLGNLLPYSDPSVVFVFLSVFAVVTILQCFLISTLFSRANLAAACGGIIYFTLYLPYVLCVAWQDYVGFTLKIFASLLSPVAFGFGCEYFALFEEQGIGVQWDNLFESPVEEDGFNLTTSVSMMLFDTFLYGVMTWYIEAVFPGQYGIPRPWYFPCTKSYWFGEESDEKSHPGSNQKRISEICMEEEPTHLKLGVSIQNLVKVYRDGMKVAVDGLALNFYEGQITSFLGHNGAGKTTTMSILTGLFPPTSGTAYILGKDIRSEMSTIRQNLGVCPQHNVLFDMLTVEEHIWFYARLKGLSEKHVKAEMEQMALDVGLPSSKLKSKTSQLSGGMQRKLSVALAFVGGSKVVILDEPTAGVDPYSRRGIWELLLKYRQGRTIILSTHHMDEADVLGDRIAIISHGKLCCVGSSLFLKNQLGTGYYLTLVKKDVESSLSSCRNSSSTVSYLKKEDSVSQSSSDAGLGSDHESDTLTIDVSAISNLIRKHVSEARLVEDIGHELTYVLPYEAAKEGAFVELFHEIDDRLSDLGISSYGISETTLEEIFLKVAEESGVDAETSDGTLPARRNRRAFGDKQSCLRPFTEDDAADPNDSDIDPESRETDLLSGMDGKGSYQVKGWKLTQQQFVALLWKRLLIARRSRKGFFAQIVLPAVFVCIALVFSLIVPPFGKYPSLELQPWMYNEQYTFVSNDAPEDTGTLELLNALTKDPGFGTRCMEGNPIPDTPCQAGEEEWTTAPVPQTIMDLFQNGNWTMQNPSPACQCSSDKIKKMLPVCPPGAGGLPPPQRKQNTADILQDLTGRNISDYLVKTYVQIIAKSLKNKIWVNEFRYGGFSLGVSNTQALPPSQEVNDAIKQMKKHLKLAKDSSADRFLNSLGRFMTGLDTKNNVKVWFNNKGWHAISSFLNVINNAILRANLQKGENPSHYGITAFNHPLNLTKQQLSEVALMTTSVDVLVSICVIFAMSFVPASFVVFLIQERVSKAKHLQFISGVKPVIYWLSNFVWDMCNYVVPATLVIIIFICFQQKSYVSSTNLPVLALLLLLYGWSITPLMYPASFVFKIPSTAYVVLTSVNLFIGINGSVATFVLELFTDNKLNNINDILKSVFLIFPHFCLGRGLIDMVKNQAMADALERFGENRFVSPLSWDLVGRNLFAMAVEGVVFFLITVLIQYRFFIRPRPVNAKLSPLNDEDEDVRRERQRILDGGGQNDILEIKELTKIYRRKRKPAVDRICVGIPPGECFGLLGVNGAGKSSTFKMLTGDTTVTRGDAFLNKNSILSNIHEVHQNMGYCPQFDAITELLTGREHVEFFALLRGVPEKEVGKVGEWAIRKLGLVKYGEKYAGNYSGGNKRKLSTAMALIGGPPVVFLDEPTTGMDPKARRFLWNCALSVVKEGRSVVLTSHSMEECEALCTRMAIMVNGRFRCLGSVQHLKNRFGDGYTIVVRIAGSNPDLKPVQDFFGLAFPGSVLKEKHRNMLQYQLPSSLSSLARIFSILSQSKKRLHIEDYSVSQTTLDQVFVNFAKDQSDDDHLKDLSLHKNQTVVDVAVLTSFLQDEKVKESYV

[2] = test system: murine GL261 glioma cells co-cultured with astrocytes; experiment: LPDS-induced glioma cell death in astrocyte-glioma co-cultures with cholesterol-lowering drugs, Annexin-V assay; format: cell-based, mouse; settings: cholesterol-deprived (LPDS) astrocyte-GL261 co-cultures, FIGS. 15A-D, n=2
Text: FIGS. 15A-D illustrate that cholesterol-lowering drugs inhibit astrocyte-mediated rescue of glioma cells from cholesterol deprivation. Analysis of LPDS-induced glioma cell death, co-cultured with astrocytes, in the presence of absence of cholesterol-lowering drugs, by Annexin-V assay. (FIGS. 15A-C) Representative flow cytometry plots of murine GL261 treated with statins (FIG. 15A) or ABCA1 inhibitors Probucol (FIG. 15B), and Glyburide (FIG. 15C), and this quantification analyses (FIG. 15D). n=2 biologically independent experiments.
Moreover, statins and probucol, or glyburide, target different nodes in the cholesterol efflux mechanism (synthesis and extracellular export). Therefore, the present inventor further tests whether the combinations of the two drug groups would have a synergistic effect on glioma viability.

LDLR [3] = experiment: LDLR levels (immunoblot) in GL261 cells treated with conditioned media of PCSK9-transduced astrocytes; format: cell-based, mouse; settings: astrocyte-conditioned media (wild type PCSK9-encoding vs empty lentivirus), 24 hours; FIG. 21B
Experimental: FIGS. 21A-D illustrate that PCSK9 overexpression in the cancer microenvironment halts glioma progression. (FIG. 21A) Box plot analysis of TCGA gene expression for PCSK9 in normal (Norm; n=207), GBM patients (n=163), or low-grade glioma (LGG, n=518). n represents the number of patients per group. (FIG. 21B) Astrocytes were transduced with wild type PCSK9-encoding or empty lentivirus, and 24 hours later, the media was collected and transferred to glioma cells. Representative immunoblot analyses comparing LDLR and ACTIN levels in GL261 glioma cells treated with the astrocyte-conditioned media for 24 hours. (n=2 biologically independent experiments). […] PCSK9-encoding or empty lentiviruses were injected into the TME of GL261-bearing mice 9 and 15 days after tumor implantation. (FIG. 21C) Analysis of tumor size, based on tumor bioluminescence. (FIG. 21D) Kaplan-Meier curves assessing overall survival of these groups. Data are representative of two independent experiments with n=6 mice/group. Data are shown as mean±s.e.m. P values were determined by two-sided Student's t-tests (FIG. 21A), two-way ANOVA (FIG. 21C), or Log rank (Mantel-Cox) test (FIG. 21D). *P<0.05, **P<0.01, ***P<0.001.
Cells were lysed in RIPA buffer supplemented with protease inhibitors (Cell Signaling). […] Quantification was done using Image Studio Lite software version 5.2 (LI-COR Biosciences).

glioma [4] = settings: experimental glioma mouse models; cited from earlier work
LDLR [5] = experiment: LDLR expression by immunoblot in glioma cells treated with LXR agonist; format: cell-based, mouse; settings: GL261 and CT-2A cells; 24-OHC vs Mock (DMSO); FIGS. 5H-I
Experimental: FIGS. 5A-N illustrate that astrocyte-derived cholesterol supports glioma survival. (FIGS. 5A-D) Real-time changes in the ECAR (FIGS. 5A-B) and oxygen consumption rate (OCR) (FIGS. 5C-D) of GL261 glioma cells, cultured in media supplemented with full serum (FCS, fetal calf serum) or lipoprotein-deprived serum (LPDS, Lipoprotein-deficient serum) for 18 hours and measured using Seahorse. Oligo, oligomycin; FCCP, carbonyl cyanide4-(trifluoromethoxy) phenylhydrazone; R/A, rotenone plus antimycin A; 2-DG, 2-deoxy-d-glucose. Glycolysis, glycolytic capacity and glycolytic reserve were extracted from the ECAR reading, and basal respiration, adenosine triphosphate (ATP) production, Maximal respiration, and spare respiratory capacity were determined based on OCR. […] (FIG. 5E) Percentage of cell death of GL261 and CT-2A glioma cells, or primary astrocytes, cultured in FCS or LPDS for 5 days; as determined by Annexin-V assay (n=5 independent experiments). […] Representative flow cytometry plots of Annexin-V/DAPI staining from each group are shown in FIG. 5F and quantification analyses of cholesterol rescue are in FIG. 5G (n=5 biologically independent experiments). […] (FIG. 5N) quantification analyses of human U87EGFRvIII (U87) glioma cells co-cultured with human primary astrocytes for 5 days (n=3 biologically independent experiments). […]

[6] = test system: GL261 and CT-2A glioma cells; experiment: Cell viability assay (Annexin V/DAPI FACS) of glioma cells; format: cell-based, mouse; settings: 24-OHC for 72 hours; GL261 and CT-2A glioma cell lines; FIGS. 5J-K
Experimental: FIGS. 5A-N illustrate that astrocyte-derived cholesterol supports glioma survival. (FIGS. 5A-D) Real-time changes in the ECAR (FIGS. 5A-B) and oxygen consumption rate (OCR) (FIGS. 5C-D) of GL261 glioma cells, cultured in media supplemented with full serum (FCS, fetal calf serum) or lipoprotein-deprived serum (LPDS, Lipoprotein-deficient serum) for 18 hours and measured using Seahorse. Oligo, oligomycin; FCCP, carbonyl cyanide4-(trifluoromethoxy) phenylhydrazone; R/A, rotenone plus antimycin A; 2-DG, 2-deoxy-d-glucose. Glycolysis, glycolytic capacity and glycolytic reserve were extracted from the ECAR reading, and basal respiration, adenosine triphosphate (ATP) production, Maximal respiration, and spare respiratory capacity were determined based on OCR. Data are representative of two independent experiments (n=6 technical replicates per experiment). (FIG. 5E) Percentage of cell death of GL261 and CT-2A glioma cells, or primary astrocytes, cultured in FCS or LPDS for 5 days; as determined by Annexin-V assay (n=5 independent experiments). […] Representative flow cytometry plots of Annexin-V/DAPI staining from each group are shown in FIG. 5F and quantification analyses of cholesterol rescue are in FIG. 5G (n=5 biologically independent experiments). (FIGS. 5H-K) Representative images and quantification of LDLR expression (Immunoblot, FIGS. 5H-I) and cell death via FACS analysis of Annexin V/DAPI staining (FIGS. 5J-K) in response to endogenous LXR agonists (24-OHC) or Mock (DMSO) treatment in GL261 and CT-2A cells (n=3 biologically independent experiments). […] (FIGS. 5L-M) Representative flow cytometry plots of murine GL261 and CT-2A glioma cells co-cultured for 5 days with primary mouse astrocytes are shown in FIG. 5L and quantification analyses in FIG. 5M (n=4 biologically independent experiments). (FIG. 5N) quantification analyses of human U87EGFRvIII (U87) glioma cells co-cultured with human primary astrocytes for 5 days (n=3 biologically independent experiments). […]

glioma [7] = settings: OXPHOS-targeting drugs; cited from earlier work
[8] = test system: tumours with EGFR or IDH1 mutations; settings: patient-derived GBM xenograft mice; cited from earlier work

COc1ccc(Cl)cc1C(=O)NCCc1ccc(S(=O)(=O)NC(=O)NC2CCCCC2)cc1 [Glyburide]
survival of subjects having GBM in-vivo (GL261 glioma (GBM)): prolonging survival
tumor size of subjects having GBM in-vivo (GL261 glioma (GBM)): decreasing tumor size
weight loss of subjects having GBM in-vivo (GL261 glioma (GBM)): preventing weight loss
ABCA1 inhibitor potency [1]: potent
attenuation of the astrocyte-dependent rescue of glioma cells from cholesterol deprivation (glioma cell death), relative efficiency [2]: the most potent

PCSK9: wild type PCSK9 secreted into astrocyte-conditioned medium by lentivirus-transduced astrocytes
levels of LDLR in GL261 glioma cells (LDLR [3]): decreased levels of LDLR

FC(F)(F)c1ccc(CNc2ccc(Cc3c[nH]c4ncc(Cl)cc34)cn2)cn1 [PLX3397]
glioma expansion (glioma [4]): reduces glioma expansion

CC(C)[C@@H](O)CC[C@@H](C)[C@H]1CC[C@H]2[C@@H]3CC=C4C[C@@H](O)CC[C@]4(C)[C@H]3CC[C@]12C [24-OHC, 24(S)-hydroxycholesterol]
LDLR expression (degradation) (LDLR [5]): dose-dependent LDLR degradation
glioma cell death [6]: dramatic cell death

CCc1n(CC(=O)O[C@@H]2C[C@H](C)CC[C@H]2C(C)C)c2ccccc2[n+]1C.[Cl-] [Gboxin]
glioma proliferation and cell death (glioma [7]): inhibit glioma proliferation and induce cell death
growth of tumours [8]: suppresses the growth of tumours
